From PMC9204298, “Inhibiting UCH-L5: Rational Design of a Cyclic Ubiquitin-Based Peptide Inhibitor” (Frontiers in Molecular Biosciences, 2022)
Where a SMILES comes first, the peptide text is derived from it. The star is where a group is joined. Cbz = O=C(OCc1ccccc1)*

Tested on: MCF7 cells, level of ubiquitinated substrates
Test: Western blot of ubiquitinated substrates in MCF7 cells
Format: cell-based
Conditions: control, n = 3, Figures 7A,B
Procedure: DMSO was used as vehicle control. Following the end of the incubation times, MCF7 cells were harvested using 3X NuPAGE SDS Sample buffer (Invitrogen, Cat# NP0007) containing β-mercaptoethanol and 1x DNAse and sonicated in Bioruptor Pico sonicator (Diagenode) (10-sec pulse on, 10 s pulse off for 10 cycles). After boiling them at 95°C for 10 min, the samples run on 4–12% SDS-PAGE agarose gel using MOPS buffer. Proteins were transferred to the nitrocellulose membrane. Ubiquitinated substrates were detected using a mouse anti-ubiquitin (P4D1) antibody (Santa Cruz, Cat# sc-8017). Mouse anti-β-actin (Sigma-Aldrich, Cat# A5441, in 1:10000 dilution) was used to detect actin as a loading control. 800CW goat anti-mouse IgG (H + L) (Li-COR, Cat# 926–32210, 1:5000) were used as secondary antibodies. The signal was detected using direct imaging by Odyssey® CLx Infrared Imaging System (LI-COR). The experiment was repeated in triplicates. The total amount of ubiquitinated substrates and the actin level was quantified using Licor Image studio densitometry software, and the total level of ubiquitinated substrates was normalized to the actin level.

## CC(C)C[C@@H](C=O)NC(=O)[C@H](CC(C)C)NC(=O)[C@H](CC(C)C)NC(=O)OCc1ccccc1 [MG132] (Cbz-Leu-Leu-Leu-aldehyde)
MG132 5 µM, 4 h
  level of ubiquitinated substrates: increased the level of ubiquitinated substrates

## C=CC(=O)N1C/C(=C\c2ccc([N+](=O)[O-])cc2)C(=O)/C(=C/c2ccc([N+](=O)[O-])cc2)C1 [bAP15]
bAP15 1 µM, 3 h
  level of ubiquitinated substrates: increased the level of ubiquitinated substrates
